# Results from patent US20210206875A1, “ERBB-2 TARGETING AGENT AND A BISPECIFIC ANTIBODY WITH ANTIGEN-BINDING SITES THAT BIND AN EPITOPE ON AN EXTRACELLULAR PART OF ERB-2 AND ERBB-3, FOR TREATMENT OF AN INDIVIDUAL WITH AN ERBB-2, ERBB-2/ERBB-3 POSITIVE TUMOUR” (Merus N.V., priority 2017, published 2021).
# Where “and” joins values, the source holds several entries; their conditions need not be identical. Equal entries are not always repeated.
# Columns and labels:
# [1] = system: HER2 overexpressing cells (SK-BR-3, BT-474, N87); test: Drug combinations with PB4188 in vitro (isobolograms); type: cell-based, human; conditions: in the presence of HRG, matrigel or HRG stress concentrations
# Experimental: Moreover, combination with chemotherapeutic drugs and cyclin inhibitors were tested. Combinations were tested on HER2 overexpressing cells growing in the presence of HRG in matrigel (SK-BR-3 and BT-474) or in the presence of HRG stress concentrations (N87 and SK-BR-3 as described in proliferation assays). The inhibitory effect of drug combinations was tested by imaging or by measuring proliferation using Alamar Blue as described herein before. […] The extent of growth inhibition obtained with each combination was calculated. […] The inhibition values of the combination experiments were used by CHALICE™ Analyzer software to generate the isobolograms.
# [2] = system: intracranial ST1360B PDX tumors; test: Intracranial ST1360B PDX tumor model; type: in vivo, mouse
# Experimental: The viability of total cells was greater than 80%. […] The cells were kept on ice until inoculation.
# Drugs were diluted in sterile saline before each dosing. […] The dosing volume was 5.0 mL/kg.
# The fixative: tissue ratio was at least 20:1.
# Image analysis was performed using Horos.
# [3] = compared to vehicle treated mice
molecule,measurement,setting,value
Cc1nc(NC(=O)N2CCC[C@H]2C(N)=O)sc1-c1ccnc(C(C)(C)C(F)(F)F)c1 [BYL719],drug combination with PB4188 (isobologram analysis),[1],synergistic
NC1(c2ccc(-c3nc4ccn5c(=O)[nH]nc5c4cc3-c3ccccc3)cc2)CCC1 [MK-2206],drug combination with PB4188 (isobologram analysis),[1],synergistic
CO[C@H]1C[C@@H]2CC[C@@H](C)[C@@](O)(O2)C(=O)C(=O)N2CCCC[C@H]2C(=O)O[C@H]([C@H](C)C[C@@H]2CC[C@@H](OCCO)[C@H](OC)C2)CC(=O)[C@H](C)/C=C(\C)[C@@H](O)[C@@H](OC)C(=O)[C@H](C)C[C@H](C)/C=C/C=C/C=C/1C [everolimus],drug combination with PB4188 (isobologram analysis),[1],synergistic
CS(=O)(=O)CCNCc1ccc(-c2ccc3ncnc(Nc4ccc(OCc5cccc(F)c5)c(Cl)c4)c3c2)o1 [lapatinib],drug combination with PB4188 (isobologram analysis),[1],synergistic
CCOc1cc2ncc(C#N)c(Nc3ccc(OCc4ccccn4)c(Cl)c3)c2cc1NC(=O)/C=C/CN(C)C [neratinib],drug combination with PB4188 (isobologram analysis),[1],synergistic
CC(=O)O[C@H]1C(=O)[C@@]2(C)[C@H]([C@H](OC(=O)c3ccccc3)[C@]3(O)C[C@H](OC(=O)[C@H](O)[C@@H](NC(=O)c4ccccc4)c4ccccc4)C(C)=C1C3(C)C)[C@]1(OC(C)=O)CO[C@@H]1C[C@@H]2O [paclitaxel],drug combination with PB4188 (isobologram analysis),[1],synergistic
O=C(CCCCCCC(=O)Nc1ccccc1)NO [vorinostat],drug combination with PB4188 (isobologram analysis),[1],synergistic
MCLA-128: bispecific antibody MCLA-128 directed against HER2 and HER3,Brain edema score day 3,"[2]; MRI, scale 0-4 (0 no, 4 massive brain edema), individual mice, day 3 post initiation of therapy",2 (2×) and 0 (2×) and 1 (4×)
same,Brain edema score day 7,"[2]; MRI, scale 0-4, individual mice, day 7",2 (4×) and 0 (2×) and 3 and 1
same,Brain edema score day 10,"[2]; MRI, scale 0-4, individual mice, day 10",2 (4×) and 0 (2×) and 3 and 1
same,Brain edema score day 14,"[2]; MRI, scale 0-4, individual mice, day 14",1 (4×) and 0 and 3 (3×)
same,Brain edema score day 21,"[2]; MRI, scale 0-4, individual mice, day 21",2 (2×) and 1 (3×) and 3 (3×)
same,Brain edema score day 28,"[2]; MRI, scale 0-4, individual mice, day 28",3 (4×) and 4
same,Brain edema score day 35,"[2]; MRI, scale 0-4, individual mice, day 35",3
same,Brain edema score day 42,"[2]; MRI, scale 0-4, individual mice, day 42",3
same,Brain edema final score,"[2]; MRI, scale 0-4, individual mice, last MR scan",3 (4×) and 1 (3×) and 4
same,tumor growth by T2-weighted MRI,[2]; [3],tumor growth delay
same,median survival,"[2]; post therapy initiation, T-DM1 10 mg/kg qwk, MCLA-128 25 mg/kg twice wk, i.v., vehicle 13 days",29 days
"trastuzumab-emtansine [T-DM1, reference compound]",tumor growth by T2-weighted MRI,[2]; [3],Tumor growth was inhibited
same,mean tumor volume 10 days post therapy,"[2]; compared to vehicle treated mice, p<0.05",significantly smaller
